Results as given in ChEMBL document CHEMBL5500330, “Novel thiazolidin-4-one benzenesulfonamide hybrids as PPARγ agonists: Design, synthesis and in vivo anti-diabetic evaluation” (Eur J Med Chem, 2024).

Key:
[1] = molecular target: T1, Peroxisome proliferator-activated receptor gamma (Homo sapiens, UniProt P37231); test: Agonist activity at human PPAR gamma by luciferase reporter gene assay
T1 sequence (P37231 whole entry): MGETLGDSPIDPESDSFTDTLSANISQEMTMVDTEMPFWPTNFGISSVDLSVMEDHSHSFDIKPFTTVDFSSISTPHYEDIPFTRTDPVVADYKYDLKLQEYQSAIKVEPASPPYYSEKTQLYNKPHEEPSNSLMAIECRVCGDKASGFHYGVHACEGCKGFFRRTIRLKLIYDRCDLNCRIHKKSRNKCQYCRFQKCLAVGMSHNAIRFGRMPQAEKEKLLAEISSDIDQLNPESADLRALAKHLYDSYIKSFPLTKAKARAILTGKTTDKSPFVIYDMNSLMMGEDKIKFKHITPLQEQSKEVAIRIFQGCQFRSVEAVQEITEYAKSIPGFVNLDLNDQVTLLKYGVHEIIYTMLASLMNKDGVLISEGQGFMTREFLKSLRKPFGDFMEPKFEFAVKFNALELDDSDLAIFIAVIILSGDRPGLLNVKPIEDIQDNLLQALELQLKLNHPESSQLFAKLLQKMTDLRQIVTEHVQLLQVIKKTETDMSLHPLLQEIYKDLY

[2] = molecular target: T2, Peroxisome proliferator-activated receptor delta (Homo sapiens, UniProt Q03181); test: Agonist activity at human PPAR delta by luciferase reporter gene assay
T2 sequence (Q03181 whole entry): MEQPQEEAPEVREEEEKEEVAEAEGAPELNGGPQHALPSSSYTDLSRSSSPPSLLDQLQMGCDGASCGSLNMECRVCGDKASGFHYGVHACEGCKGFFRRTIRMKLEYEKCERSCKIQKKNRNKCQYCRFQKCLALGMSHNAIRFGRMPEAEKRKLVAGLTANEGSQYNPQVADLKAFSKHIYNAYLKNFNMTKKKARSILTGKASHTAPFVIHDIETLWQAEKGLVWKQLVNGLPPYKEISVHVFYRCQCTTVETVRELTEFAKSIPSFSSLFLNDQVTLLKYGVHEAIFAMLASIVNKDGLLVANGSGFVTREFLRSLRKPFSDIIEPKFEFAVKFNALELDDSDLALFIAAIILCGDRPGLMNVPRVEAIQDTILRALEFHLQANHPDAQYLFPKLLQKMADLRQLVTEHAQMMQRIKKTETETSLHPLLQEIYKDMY

[3] = Acute toxicity in male Albino mouse assessed as mortality at upto 2000 mg/kg, po measured upto 7 days; assay type: organism-based; conditions: in vivo, 168 h, time < 7 day
[4] = molecular target: T3, Peroxisome proliferator-activated receptor alpha (Homo sapiens, UniProt Q07869); test: Agonist activity at human PPAR alpha by luciferase reporter gene assay
T3 sequence (Q07869 whole entry): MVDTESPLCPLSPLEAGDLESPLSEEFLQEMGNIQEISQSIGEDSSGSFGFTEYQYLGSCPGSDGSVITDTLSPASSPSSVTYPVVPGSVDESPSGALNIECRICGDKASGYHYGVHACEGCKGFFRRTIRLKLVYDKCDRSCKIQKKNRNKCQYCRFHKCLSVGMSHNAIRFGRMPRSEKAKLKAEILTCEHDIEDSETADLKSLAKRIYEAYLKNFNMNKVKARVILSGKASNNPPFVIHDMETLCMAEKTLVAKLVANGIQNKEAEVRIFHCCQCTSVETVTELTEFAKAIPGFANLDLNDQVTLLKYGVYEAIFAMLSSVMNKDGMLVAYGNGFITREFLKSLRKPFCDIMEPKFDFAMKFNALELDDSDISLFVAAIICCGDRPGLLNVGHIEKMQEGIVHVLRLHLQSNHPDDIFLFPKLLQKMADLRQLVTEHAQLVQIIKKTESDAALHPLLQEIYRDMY

[5] = tested on: Rattus norvegicus; test: Antidiabetic activity against STZ induced Albino Wistar rat diabetic model assessed as hypoglycaemic effect at 36 mg/kg, po administered as single dose and measured after 15 days; assay type: functional; conditions: time 15 day
[6] = tested on: Rattus norvegicus; test: Antidiabetic activity against NA-STZ induced Wistar rat model of type 2 diabetes assessed as decrease in blood glucose level at 36 mg/kg, po measured after 21 days relative to control; assay type: functional; parameters: scale not given: the % may be the effect or the level left; conditions: time 21 day
[7] = tested on: Rattus norvegicus; test: Antidiabetic activity against NA-STZ induced Wistar rat model of type 2 diabetes assessed as increase in C-peptide level at 36 mg/kg, po measured after 21 days by ELISA method relative to control; assay type: functional; conditions: time 21 day

Structure (SMILES): COc1cc(/C=C2\SC(Nc3ccc(S(N)(=O)=O)cc3)=NC2=O)ccc1OCCc1ccccc1
- EC50 [1]: 11.1 µM
- EC50 [2]: 16.3 µM
- Activity [3]: Toxic

Structure (SMILES): COc1cc(/C=C2\SC(Nc3ccc(S(N)(=O)=O)cc3)=NC2=O)ccc1OCc1ccc(C)cc1
- EC50 [4]: 40.9 µM
- EC50 [2]: 48.1 µM
- Activity [3]: Toxic

Structure (SMILES): COc1cccc(COc2cc(/C=C3\SC(Nc4ccc(S(N)(=O)=O)cc4)=NC3=O)ccc2OC)c1
- EC50 [4]: 22.7 µM
- EC50 [1]: 2.94 µM
- Activity [3]: Non-Toxic

Structure (SMILES): COc1cccc(COc2ccc(/C=C3\SC(Nc4ccc(S(N)(=O)=O)cc4)=NC3=O)cc2OC)c1
- EC50 [1]: 3.98 µM
- EC50 [2]: 15.4 µM
- Activity [3]: Non-Toxic

Structure (SMILES): NS(=O)(=O)c1ccc(NC2=NC(=O)/C(=C/c3ccc(OCc4ccc(Cl)cc4)cc3)S2)cc1
- EC50 [2]: 35.2 µM
- Activity [3]: Toxic

Structure (SMILES): NS(=O)(=O)c1ccc(-n2cc(/C=C3\SC(=O)NC3=O)c(-c3ccc4ccccc4c3)n2)cc1
- Activity [5]: 134.1 mg/dL

Structure (SMILES): CC(C)(Oc1ccc(CCNC(=O)c2ccc(Cl)cc2)cc1)C(=O)O [BEZAFIBRATE]
- EC50 [1]: 83.3 µM
- EC50 [2]: 25.9 µM

Structure (SMILES): CCc1ccc(CCOc2ccc(CC3SC(=O)NC3=O)cc2)nc1 (stereo not given) [PIOGLITAZONE]
- Activity [6]: 35%
- Activity [7]: 38.6%
- Activity [5]: 132.2 mg/dL
